Key:
[1] = molecular target: human calcitonin receptor (CTR) and RAMP3 (AMY3) (Homo sapiens, UniProt O60896+P30988); assay: Amylin Receptor cAMP Assay II; assay type: cell-based; conditions: COS-7/AMY3 cells, cAMP dynamic 2 kit, read-out: Amylin Receptor cAMP Stimulation Activity: EC50
Source text: Amylin Receptor cAMPAssay II
AMYRs are heterodimers of the class B calcitonin (CT) G-protein-coupled receptor (CTR) and receptor activity-modifying proteins (RAMPs). All three RAMPs can interact with the CTR and form AMY1, AMY2, AMY3 with RAMP1, RAMP2 and RAMP3, respectively. Like other class B1 GPCRs, the CT receptor family is canonically coupled to Gs-mediated cAMP production, and measurement of cAMP accumulation has been the primary assay used to determine peptide selectivity and potency.
(§1) To optimize functional activity directed toward Gas coupling, COS-7 cells were stably transfected with human calcitonin receptor (CTR) and RAMP3, simultaneously. 100×concentration of compound working solutions were prepared with 4-fold serial dilution in 384-well Echo LDV plate (Labcyte, Cat #LP-0200-BC). 200 nL/well 100×concentration of compound working solutions were moved to 384-well white microplate (Perkin Elmer, Cat #6007680) using Labcyte ECHO550. […] cells/mL COS-7/AMY3 cell suspensions prepared with assay buffer [HBSS containing 20 mM HEPES (Gibco, Cat #15630-080), 0.5 mM IBMX (Sigma, Cat #15879) and 0.1% Casein (Sigma, Cat #C4765)], 20 μL cell suspensions were added to each well of previous generated assay plate which already contains 200 nL compound at 100×concentration using ThermoFisher Multidrop Combi (2000 cells/well). Seal the plate and incubate at 37° C. with 5% CO2 for 30 min.
(§2) After incubation, the cAMP assay signal was generated using cAMP dynamic 2 kit (Revvity, Cat #62AM4PEC). 10 μL cAMP-d2 working solution was added to each well, followed by 10 μL Anti-cAMP antibody-cryptate working solution which was added to each well using CERTUS FLEX LIQUID DISPENSER The samples were then incubated at room temperature for 1 hour protected from light. the fluorescence was read at 665 and 615 nm with Reader PerkinElmer EnVision 2105.

[2] = molecular target: T1, human calcitonin receptor (CTR) (Homo sapiens, UniProt P30988); assay: Calcitonin receptor (CTR) cAMP Assay; assay type: cell-based; conditions: COS7-human CTR Clone #2 cells, cAMP dynamic 2 kit; read-out: Calcitonin Receptor cAMP Stimulation Activity: EC50
T1 construct: expressed in transfected cells; host or cells: COS-7 (COS7-human CTR Clone #2)
T1 sequence (P30988 25-474): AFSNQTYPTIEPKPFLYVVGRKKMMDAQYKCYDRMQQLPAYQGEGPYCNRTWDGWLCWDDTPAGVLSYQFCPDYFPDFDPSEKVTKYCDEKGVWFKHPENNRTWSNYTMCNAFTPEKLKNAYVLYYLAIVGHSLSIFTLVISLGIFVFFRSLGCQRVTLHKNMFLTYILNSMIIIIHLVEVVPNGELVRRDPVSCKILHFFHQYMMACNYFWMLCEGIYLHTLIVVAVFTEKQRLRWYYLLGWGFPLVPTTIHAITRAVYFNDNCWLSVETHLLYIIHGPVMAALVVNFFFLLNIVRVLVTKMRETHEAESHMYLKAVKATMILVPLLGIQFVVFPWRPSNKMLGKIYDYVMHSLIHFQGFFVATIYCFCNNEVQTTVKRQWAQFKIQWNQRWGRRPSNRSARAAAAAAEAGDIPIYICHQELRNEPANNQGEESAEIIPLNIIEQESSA
Source text: Calcitonin receptor (CTR) cAMPAssay
The calcitonin receptor (CTR) belongs to the subfamily of GPCRs known as the secretin or ‘B’ family of GPCRs. Like other class B1 GPCRs, the CT receptor family is canonically coupled to Gs-mediated cAMP production, and measurement of cAMP accumulation has been the primary assay used to determine peptide selectivity and potency.
as §1, with “to create COS7-human CTR Clone #2 stable cell line. 100× concentration” for “and RAMP3, simultaneously. 100×concentration”, “COS7-human CTR Clone #2” for “COS-7/AMY3”
as §2, with “#62AM4PEC). […] cAMP-d2 working” for “#62AM4PEC). 10 μL cAMP-d2 working”

Chain of human calcitonin receptor (CTR) and RAMP3 (AMY3) (O60896 24-148, one chain of several): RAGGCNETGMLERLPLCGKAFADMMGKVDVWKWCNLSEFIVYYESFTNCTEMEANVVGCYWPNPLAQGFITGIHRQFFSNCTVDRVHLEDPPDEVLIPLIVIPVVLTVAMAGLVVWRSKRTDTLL

| EC50 [1] | EC50 [2] | Compound |
| --- | --- | --- |
| 2070 nM | 129 nM | Cc1nnc(-c2c(CCC3CCCCO3)nc3c(c2-c2ccc(C(=O)NCc4ccc(F)c(F)c4)s2)C(=O)N2CCC[C@@H]32)o1 (stereo partly drawn) [Compound 62, N-(3,4-difluorobenzyl)-5-((9aS)-3-(5-methyl-1,3,4-oxadiazol-2-yl)-5-oxo-2-(2-(tetrahydro-2H-pyran-2-yl)ethyl)-7,8,9,9a-tetrahydro-5H-pyrido[2,3-a]pyrrolizin-4-yl)thiophene-2-carboxamide] |
| 306 nM | 25 nM | Cc1nnc(-c2c(CCC3CCOCC3)nc3c(c2-c2cc4ccnc(N[C@@H]5CCc6ncccc65)c4s2)C(=O)N2CCC[C@@H]32)o1 [Compound 64, (S)-4-(7-(((R)-6,7-dihydro-5H-cyclopenta[b]pyridin-5-yl)amino)thieno[2,3-c]pyridin-2-yl)-3-(5-methyl-1,3,4-oxadiazol-2-yl)-2-(2-(tetrahydro-2H-pyran-4-yl)ethyl)-7,8,9,9a-tetrahydro-5H-pyrido[2,3-a]pyrrolizin-5-one] |
| 412 nM | 22 nM | Cc1nnc(-c2c(CC3COc4cc(F)ccc43)nc3c(c2-c2ccc(C(=O)NCc4ccc(F)c(F)c4)s2)C(=O)N2CCC[C@@H]32)o1 (stereo partly drawn) [Compound 67, 5-[(9aS)-2-[(6-fluoro-2,3-dihydrobenzofuran-3-yl)methyl]-3-(5-methyl-1,3,4-oxadiazol-2-yl)-5-oxo-7,8,9,9a-tetrahydropyrido[2,3-a]pyrrolizin-4-yl]-N-[(3,4-difluorophenyl)methyl]thiophene-2-carboxamide] |
| 168 nM | 3 nM | Cc1nnc(-c2c(CCc3ccc(F)cc3)nc3c(c2-c2ccc(C(=O)NCc4ccc(F)c(F)c4)s2)C(=O)N2CCOC[C@@H]32)o1 [Compound 68, (R)—N-(3,4-difluorobenzyl)-5-(2-(4-fluorophenethyl)-3-(5-methyl-1,3,4-oxadiazol-2-yl)-5-oxo-7,8,10,10a-tetrahydro-5H-pyrido[2′,3′:3,4]pyrrolo[2,1-c][1,4]oxazin-4-yl)thiophene-2-carboxamide] |
| 508 nM | 71 nM | Cc1nnc(-c2c(CCC3CCOCC3)nc3c(c2-c2cc4ccnc(N[C@@H]5CCc6ncccc65)c4s2)C(=O)N[C@H]3C(C)C)o1 [Compound 76] |
| 427 nM | 6.4 nM | COc1cccc2c1CC[C@H]2Nc1nccc2cc(-c3c(-c4nnc(C)o4)c(CCC4CCOCC4)nc4c3S(=O)(=O)CC4C(C)C)sc12 (stereo partly drawn) [Compound 77, 3-isopropyl-7-(7-(((R)-4-methoxy-2,3-dihydro-1H-inden-1-yl)amino)thieno[2,3-c]pyridin-2-yl)-6-(5-methyl-1,3,4-oxadiazol-2-yl)-5-(2-(tetrahydro-2H-pyran-4-yl)ethyl)-2,3-dihydrothieno[3,2-b]pyridine 1,1-dioxide] |
| 187 nM | 13 nM | Cc1nnc(-c2c(CCC3CCOCC3)nc3c(c2-c2cc4ccnc(N[C@@H]5CCc6ncccc65)c4s2)S(=O)(=O)CC3C(C)C)o1 (stereo partly drawn) [Compound 78, 7-(7-(((R)-6,7-dihydro-5H-cyclopenta[b]pyridin-5-yl)amino)thieno[2,3-c]pyridin-2-yl)-3-isopropyl-6-(5-methyl-1,3,4-oxadiazol-2-yl)-5-(2-(tetrahydro-2H-pyran-4-yl)ethyl)-2,3-dihydrothieno[3,2-b]pyridine 1,1-dioxide] |
| 325 nM | 7.5 nM | Cc1nnc(-c2c(CCC3CCOCC3)nc3c(c2-c2cc4ccnc(N[C@@H]5CCc6ncccc65)c4s2)S(=O)(=O)N2CCC[C@@H]32)o1 [Compound 81, (S)-4-(7-(((R)-6,7-dihydro-5H-cyclopenta[b]pyridin-5-yl)amino)thieno[2,3-c]pyridin-2-yl)-3-(5-methyl-1,3,4-oxadiazol-2-yl)-2-(2-(tetrahydro-2H-pyran-4-yl)ethyl)-7,8,9,9a-tetrahydropyrrolo[1′,2′:2,3]isothiazolo[4,5-b]pyridine 5,5-dioxide] |

From patent US20250051355A1, “COMPOUNDS, COMPOSITIONS, AND METHODS” (ACONCAGUA BIO, INC., priority 2023, published 2025)
